Calls of active or inactive are those of the source. No cut-off for these calls is given here.
Assays:
[1] = biological target: T1, Hepatic sodium/bile acid cotransporter (Homo sapiens, UniProt Q14973); test: Inhibition of FITC-labeled HBV Pre-S1 polypeptide binding to human NTCP expressed in HepG2 cells after 2 to 3 hrs by confocal microscopic analysis; format: cell-based; conditions: time 2-3 hrs
T1 sequence (Q14973 whole entry): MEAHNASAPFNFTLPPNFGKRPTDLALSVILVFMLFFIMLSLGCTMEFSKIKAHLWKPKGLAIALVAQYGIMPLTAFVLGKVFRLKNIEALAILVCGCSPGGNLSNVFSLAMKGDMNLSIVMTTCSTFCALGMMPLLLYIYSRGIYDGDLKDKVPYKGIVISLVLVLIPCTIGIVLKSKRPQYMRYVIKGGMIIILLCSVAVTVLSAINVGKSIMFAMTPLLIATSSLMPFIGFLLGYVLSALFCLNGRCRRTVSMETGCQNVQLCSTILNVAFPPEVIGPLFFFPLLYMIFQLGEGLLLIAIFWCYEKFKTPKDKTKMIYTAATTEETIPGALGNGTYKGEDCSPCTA

[2] = test system: Hepatitis B virus; test: Antiviral activity against HBV infected in human HepG2-NTCP cells assessed as reduction in HBeAg secretion at 1 uM preincubated with compound followed by viral infection by ELISA; format: functional, organism-based
[3] = biological target: T1, Hepatic sodium/bile acid cotransporter; test: Inhibition of human NTCP-mediated [3H]-TCA uptake expressed in human HepG2 cells at 2 uM; format: cell-based; conditions: hepg2, 2 µM
[4] = test system: Hepatitis B virus; test: Antiviral activity against HBV infected in human HepG2-NTCP cells assessed as reduction in HBeAg secretion at 111 to 1000 nM incubated for 24 hrs followed by replacement with fresh medium and measured at day 5 post infection by ELISA; format: functional, organism-based; conditions: dose 111-1000 nM
[5] = test system: Hepatocyte; test: Cytotoxicity against primary tupaia hepatocytes expressing NTCP assessed as reduction in cell viability at 100 uM after 48 hrs by Cell-Titer Glo assay; format: cell-based; conditions: scandentia
[6] = biological target: T1, Hepatic sodium/bile acid cotransporter; test: Inhibition of human NTCP-mediated NQL-064 uptake expressed in human HepG2 cells incubated for 30 mins; format: cell-based; conditions: hepg2, 0.5 h
[7] = biological target: T2, Ileal sodium/bile acid cotransporter (Homo sapiens, UniProt Q12908); test: Inhibition of human ASBT-mediated [3H]-TCA uptake expressed in human HepG2 cells at 2 uM; format: cell-based; conditions: hepg2, 2 µM
T2 sequence (Q12908 whole entry): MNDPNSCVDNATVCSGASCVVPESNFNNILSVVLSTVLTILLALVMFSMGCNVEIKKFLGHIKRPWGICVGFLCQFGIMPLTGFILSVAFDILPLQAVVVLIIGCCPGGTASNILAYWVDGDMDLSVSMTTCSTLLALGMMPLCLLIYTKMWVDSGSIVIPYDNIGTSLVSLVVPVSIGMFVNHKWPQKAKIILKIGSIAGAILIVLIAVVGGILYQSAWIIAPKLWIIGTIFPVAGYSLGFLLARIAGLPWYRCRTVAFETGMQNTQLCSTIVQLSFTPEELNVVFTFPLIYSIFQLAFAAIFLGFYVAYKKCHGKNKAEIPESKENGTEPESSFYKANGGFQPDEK

[8] = test system: Hepatitis B virus; test: Antiviral activity against HBV infected in human HepG2-NTCP cells assessed as reduction in HBeAg secretion incubated for 24 hrs followed replacement with fresh medium and measured at day 5 post infection by ELISA; format: functional, organism-based
[9] = test system: HepG2; test: Cytotoxicity against human HepG2 cells expressing NTCP assessed as reduction in cell viability at 10 uM after 48 hrs by alamar blue assay; format: cell-based; conditions: hepg2, 48 h
[10] = test system: HepG2; test: Inhibition of tree shrew NTCP-mediated [3H]-TCA uptake expressed in human HepG2 cells; format: cell-based; conditions: Scandentia
[11] = biological target: T1, Hepatic sodium/bile acid cotransporter; test: Inhibition of human NTCP-mediated NQL-065 uptake expressed in human HepG2 cells incubated for 30 mins; format: cell-based; conditions: hepg2, 0.5 h
[12] = test system: Hepatitis B virus; test: Antiviral activity against HBV infected in human HepG2-NTCP cells assessed as reduction in HBeAg secretion preincubated for 2 hrs followed by viral infection by ELISA; format: functional, organism-based
[13] = test system: Hepatitis delta virus; test: Antiviral activity against HDV infected in human HepG2-NTCP cells assessed as reduction in intranuclear accumulation of HDV delta antigen at 5 uM incubated for 24 hrs followed by replacement with fresh medium and measured at day 5 post infection by DAPI staining based confocal microscopic analysis (reference value: 12.1 %); format: functional; set-up: scale not given: the % may be the effect or the level left
[14] = test system: HepG2; test: Inhibition of monkey NTCP-mediated [3H]-TCA uptake expressed in human HepG2 cells; format: cell-based; conditions: Macaca mulatta
[15] = test system: Hepatitis B virus; test: Antiviral activity against HBV infected in human HepG2-NTCP cells assessed as reduction in HBeAg secretion at 1 uM compound added along with viral infection by ELISA; format: functional, organism-based
[16] = test system: Hepatitis B virus; test: Antiviral activity against HBV infected in human HepG2-NTCP cells assessed as reduction in intracellular accumulation of HBcAg at 1 uM by immunostaining based fluorescence microscopic analysis; format: functional, organism-based
[17] = test system: Hepatitis B virus; test: Antiviral activity against HBV infected in human HepG2-NTCP cells assessed as reduction in HBeAg secretion at 1 uM pre-infected with virus followed by compound addition by ELISA; format: functional, organism-based
[18] = test system: Hepatitis B virus; test: Antiviral activity against HBV infected in human HepG2-NTCP cells assessed as reduction in intracellular HBV RNA level at 1 uM by qPCR analysis; format: functional, organism-based
[19] = biological target: T3, Solute carrier organic anion transporter family member 1B1 (Homo sapiens, UniProt Q9Y6L6); test: Inhibition of human OATP1B1-mediated [3H]-Estrone sulfate uptake expressed in human HepG2 cells at 2 uM; format: cell-based; conditions: hepg2, 2 µM
T3 sequence (Q9Y6L6 whole entry): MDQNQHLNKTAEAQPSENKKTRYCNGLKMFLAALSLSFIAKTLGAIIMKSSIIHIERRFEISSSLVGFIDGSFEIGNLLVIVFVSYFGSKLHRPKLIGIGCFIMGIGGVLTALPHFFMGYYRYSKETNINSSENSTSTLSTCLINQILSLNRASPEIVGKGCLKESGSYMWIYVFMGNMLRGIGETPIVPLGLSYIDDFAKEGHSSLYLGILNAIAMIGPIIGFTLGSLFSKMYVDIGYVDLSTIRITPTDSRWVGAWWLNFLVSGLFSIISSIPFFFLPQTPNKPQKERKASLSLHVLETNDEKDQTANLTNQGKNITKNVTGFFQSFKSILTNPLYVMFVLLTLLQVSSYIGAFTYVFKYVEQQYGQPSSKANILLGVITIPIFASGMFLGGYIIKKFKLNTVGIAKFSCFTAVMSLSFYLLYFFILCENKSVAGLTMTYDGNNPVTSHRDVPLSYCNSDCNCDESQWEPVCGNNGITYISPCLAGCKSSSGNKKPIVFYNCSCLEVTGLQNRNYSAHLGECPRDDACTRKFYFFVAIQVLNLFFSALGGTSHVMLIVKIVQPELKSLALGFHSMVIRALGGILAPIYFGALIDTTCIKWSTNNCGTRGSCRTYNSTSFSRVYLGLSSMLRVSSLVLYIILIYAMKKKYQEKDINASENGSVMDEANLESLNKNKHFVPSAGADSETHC

[20] = test system: Hepatitis B virus; test: Antiviral activity against HBV infected in human HepG2-NTCP cells assessed as reduction in intracellular accumulation of HBsAg at 1 uM by immunostaining based fluorescence microscopic analysis; format: functional, organism-based
[21] = biological target: T1, Hepatic sodium/bile acid cotransporter; test: Inhibition of human NTCP-mediated [3H]-Estrone sulfate uptake expressed in human HepG2 cells at 2 uM; format: cell-based; conditions: hepg2, 2 µM

Structure (SMILES)	inhibition (INH) [1]	Activity [2]	inhibition (INH) [3]	Activity [4]	Activity [5]	inhibition (INH) [6]	inhibition (INH) [7]	IC50 [8]	Activity [9]	inhibition [10]	inhibition (INH) [11]	Activity [12]	Activity [13]	inhibition [14]	Activity [15]	Activity [16]	Activity [17]	Activity [18]	inhibition (INH) [19]	Activity [20]	also measured
C[C@H](CCC(=O)O[C@@H]1CC[C@@]2(C)[C@@H](C1)C[C@H](O)[C@@H]1[C@@H]2CC[C@]2(C)[C@@H]([C@H](C)CCC(=O)NCCS(=O)(=O)O)CC[C@@H]12)[C@H]1CC[C@H]2[C@@H]3[C@@H](O)C[C@@H]4C[C@H](O)CC[C@]4(C)[C@H]3CC[C@]12C	Active	Active	Active	Active	Non-Toxic	Active	Not Active	58 nM	Non-Toxic	Active	Active	Active	1.7%	Active	Active	Active	inactive	Active	Not Active	Active	inhibition (INH) [21]: Active
C[C@H](CCC(=O)NCCS(=O)(=O)O)[C@H]1CC[C@H]2[C@@H]3[C@@H](O)C[C@@H]4C[C@H](NC(=O)CCCC(=O)N[C@@H]5CC[C@@]6(C)[C@@H](C5)C[C@H](O)[C@@H]5[C@@H]6CC[C@]6(C)[C@@H]([C@H](C)CCC(=O)NCCS(=O)(=O)O)CC[C@@H]56)CC[C@]4(C)[C@H]3CC[C@]12C	Active	Active	Active	Active	Non-Toxic	Active	Not Active	41 nM	Non-Toxic	inactive	Active	inactive	2.5%	inactive	Active	Active	inactive	Active	Not Active	Active	inhibition (INH) [21]: Active

Reference: ChEMBL document CHEMBL4834431, “Design of Dimeric Bile Acid Derivatives as Potent and Selective Human NTCP Inhibitors” (J Med Chem, 2021)
